Source: PubChem BioAssay (NCI)
Values joined by “and” are separate entries in the source; they are usually repeats but may differ in a detail not shown here. Identical values can stand only once.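 Method: 48-hour compound exposure of cells in 96-well plates, five concentrations, linear interpolation of endpoints. Here, GI50 denotes the concentration required for 50% inhibition of growth. TGI denotes the concentration required for complete inhibition of growth.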

Columns and labels:
Assay in all cases: NCI-60 cell line screen, 48 h
EKVX NSCLC = test system: EKVX NSCLC
HT29 colon = test system: HT29 colon
NCI-H460 lung = test system: NCI-H460 lung
NCI-H522 lung = test system: NCI-H522 lung
NCI/ADR-RES ovarian = test system: NCI/ADR-RES ovarian
SF-268 CNS = test system: SF-268 CNS
TK-10 renal = test system: TK-10 renal
UACC-257 melanoma = test system: UACC-257 melanoma
UACC-62 melanoma = test system: UACC-62 melanoma
SN12C renal = test system: SN12C renal

In the case of Cc1nn(CNc2ccccc2C(F)(F)F)c(=S)n1/N=C/c1ccc(F)cc1, the GI50 (EKVX NSCLC) is reported as 42 µM, the TGI (EKVX NSCLC) is reported as greater than 100 µM and the GI50 (HT29 colon) is reported as 42.1 µM. For the same compound, the TGI (HT29 colon) was greater than 100 µM, the GI50 (NCI-H460 lung) was greater than 100 µM and the TGI (NCI-H460 lung) was greater than 100 µM. The GI50 (NCI-H522 lung) was greater than 100 µM, the TGI (NCI-H522 lung) was greater than 100 µM and the GI50 (NCI/ADR-RES ovarian) was greater than 100 µM. For the same compound, the TGI (NCI/ADR-RES ovarian) was greater than 100 µM, the GI50 (SF-268 CNS) was greater than 100 µM and the TGI (SF-268 CNS) was greater than 100 µM. The GI50 (TK-10 renal) was 53.8 µM, the TGI (TK-10 renal) was greater than 100 µM and the GI50 (UACC-257 melanoma) was 59.2 µM. It also gave a TGI (UACC-257 melanoma) greater than 100 µM, a GI50 (UACC-62 melanoma) of 35.4 µM and a TGI (UACC-62 melanoma) greater than 100 µM.
COc1cc2c(c(OC)c1OC)-c1ccc(O)c(=O)cc1[C@@H](NC(C)=O)CC2 was tested, and the TGI (EKVX NSCLC) was greater than 100 µM, the GI50 (HT29 colon) was 6.91 µM and the TGI (HT29 colon) was > 100 µM and 89.7 µM. For the same compound, the GI50 (NCI-H460 lung) was 3.9 µM, the TGI (NCI-H460 lung) was > 100 µM and 28.6 µM and the GI50 (NCI-H522 lung) was 4.64 µM. The TGI (NCI-H522 lung) was 90.8 µM and 36.4 µM, the GI50 (NCI/ADR-RES ovarian) was 4.6 µM and the TGI (NCI/ADR-RES ovarian) was > 100 µM and 36.2 µM. For the same compound, the GI50 (SF-268 CNS) was 7.42 µM, the TGI (SF-268 CNS) was greater than 100 µM and the GI50 (SN12C renal) was 7.93 µM. The TGI (SN12C renal) was 88.2 µM and 35 µM, the TGI (TK-10 renal) was greater than 100 µM and the GI50 (UACC-257 melanoma) was 4.34 µM. The TGI (UACC-257 melanoma) was 33.3 µM and 77.1 µM, the GI50 (UACC-62 melanoma) was 3.82 µM and the TGI (UACC-62 melanoma) was 18.1 µM and 30 µM.
Compound COc1cc2c3c(c1OC)C1(C=CC(=O)C=C1)CC3NCC2 (centres undefined) has a TGI (EKVX NSCLC) greater than 100 µM, a TGI (HT29 colon) greater than 100 µM and a TGI (NCI-H460 lung) greater than 100 µM. It also gave a TGI (NCI-H522 lung) greater than 100 µM, a TGI (NCI/ADR-RES ovarian) greater than 100 µM and a TGI (SF-268 CNS) greater than 100 µM. The TGI (SN12C renal) was greater than 100 µM, the TGI (TK-10 renal) was greater than 100 µM and the TGI (UACC-257 melanoma) was greater than 100 µM. It also gave a TGI (UACC-62 melanoma) greater than 100 µM.
Compound CCOC(=O)Cc1csc(N=Nc2c(O)[nH]c3ccccc23)n1 has a TGI (EKVX NSCLC) greater than 100 µM, a TGI (HT29 colon) greater than 100 µM and a TGI (NCI-H460 lung) greater than 100 µM. It also gave a TGI (NCI-H522 lung) of 93.5 µM, a TGI (NCI/ADR-RES ovarian) greater than 100 µM and a TGI (SF-268 CNS) greater than 100 µM. It also gave a TGI (SN12C renal) greater than 100 µM, a TGI (TK-10 renal) greater than 100 µM and a TGI (UACC-257 melanoma) greater than 100 µM. It also gave a TGI (UACC-62 melanoma) greater than 100 µM.
C[C@]12CC[C@H]3[C@@H](CC[C@]4(O)C[C@@H](O)CC[C@]34CO)[C@@]1(O)CC[C@@H]2C1=CC(=O)OC1 gave a TGI (EKVX NSCLC) of 3.49 µM, a TGI (HT29 colon) of 7.81 µM and a TGI (NCI-H460 lung) of 1.81 µM. The TGI (NCI-H522 lung) was 4.94 µM, the TGI (NCI/ADR-RES ovarian) was 3.8 µM and the TGI (SF-268 CNS) was 3.25 µM. It also gave a TGI (SN12C renal) of 11 µM, a TGI (TK-10 renal) of 4.91 µM and a TGI (UACC-257 melanoma) of 12.7 µM. For the same compound, the TGI (UACC-62 melanoma) was 11.4 µM.
For CCCCCCNC(=O)Oc1ccc(/C(=C(/C)Cc2ccc(OC)cc2)c2ccc(OCCN(C)C)cc2)cc1, the GI50 (EKVX NSCLC) was 4.91 µM, the TGI (EKVX NSCLC) was 10.1 µM and the GI50 (HT29 colon) was 1.2 µM. It also gave a TGI (HT29 colon) of 4.58 µM, a GI50 (NCI-H460 lung) of 4.22 µM and a TGI (NCI-H460 lung) of 8.93 µM. For the same compound, the GI50 (NCI-H522 lung) was 5.61 µM, the TGI (NCI-H522 lung) was 10.6 µM and the GI50 (NCI/ADR-RES ovarian) was 5.07 µM. For the same compound, the TGI (NCI/ADR-RES ovarian) was 10.7 µM, the GI50 (SF-268 CNS) was 5.07 µM and the TGI (SF-268 CNS) was 10.9 µM. For the same compound, the GI50 (SN12C renal) was 4.84 µM, the TGI (SN12C renal) was 9.44 µM and the GI50 (TK-10 renal) was 4.52 µM. For the same compound, the TGI (TK-10 renal) was 9.02 µM, the GI50 (UACC-257 melanoma) was 6.42 µM and the TGI (UACC-257 melanoma) was 11.9 µM. The GI50 (UACC-62 melanoma) was 4.44 µM and the TGI (UACC-62 melanoma) was 8.72 µM.
For COc1ccc([C@@H](O)c2cc(-c3ncnc4cc(N5CCOCC5)ccc34)c(F)cc2Cl)nn1, the GI50 (EKVX NSCLC) was 5.35 µM, the TGI (EKVX NSCLC) was 42.9 µM and the GI50 (HT29 colon) was 1.97 µM. It also gave a TGI (HT29 colon) of 20.9 µM, a GI50 (NCI-H460 lung) of 2.92 µM and a TGI (NCI-H460 lung) of 43.4 µM. It also gave a GI50 (NCI-H522 lung) of 3.31 µM, a TGI (NCI-H522 lung) of 22.3 µM and a GI50 (NCI/ADR-RES ovarian) of 4.87 µM. For the same compound, the TGI (NCI/ADR-RES ovarian) was 95.4 µM, the GI50 (SF-268 CNS) was 5.99 µM and the TGI (SF-268 CNS) was greater than 100 µM. For the same compound, the GI50 (SN12C renal) was 2.45 µM, the TGI (SN12C renal) was greater than 100 µM and the GI50 (TK-10 renal) was 1.95 µM. For the same compound, the TGI (TK-10 renal) was 17.7 µM, the GI50 (UACC-257 melanoma) was 1.99 µM and the TGI (UACC-257 melanoma) was 30 µM.
